PMC12693419, “Design, Synthesis, Biological Evaluation, and In Silico Studies of Novel Multitarget Cinnamic Acid Hybrids” (Molecules, 2025)

Key:
[1] = In vitro inhibition of linoleic acid lipid peroxidation (AAPH); settings: 100 μM; anti-lipid peroxidation
Excerpt: In the present study, the aim was to evaluate the anti-lipid peroxidation activities of the synthesized compounds 5a–i, 6a–i, 9a–i, and 11 and compare their efficacy to that of Trolox, a well-known antioxidant. Using the water-soluble compound 2,2′-azobis(2-amidinopropane) hydrochloride (AAPH), peroxyl radicals are generated through spontaneous thermal decomposition in vitro. This experimental setup imitated the lipid peroxidation processes occurring in cells due to radical activity allowing the investigation of the effectiveness of the tested compounds under conditions resembling cellular oxidative stress.
An in vitro assay was performed following previously established protocols. The compound 2,2′-Azobis(2-methylpropionamidine) dihydrochloride (AAPH) was used as a controlled source of thermally generated alkylperoxy free radicals. The formation of conjugated diene hydroperoxides through the oxidation of sodium linoleate in an aqueous dispersion at 37 °C was measured by monitoring absorbance at 234 nm. The results were compared with the reference compound, Trolox (93%) (Table 6).

[2] = target: T1, soybean lipoxygenase isoenzyme-1 (SLOX-1) (Glycine max, UniProt P08170); assay: In vitro inhibition of soybean lipoxygenase; assay type: biochemical; settings: pH 9.0
T1 construct: purchased Merck and Sigma-Aldrich
T1 sequence (P08170 1-839): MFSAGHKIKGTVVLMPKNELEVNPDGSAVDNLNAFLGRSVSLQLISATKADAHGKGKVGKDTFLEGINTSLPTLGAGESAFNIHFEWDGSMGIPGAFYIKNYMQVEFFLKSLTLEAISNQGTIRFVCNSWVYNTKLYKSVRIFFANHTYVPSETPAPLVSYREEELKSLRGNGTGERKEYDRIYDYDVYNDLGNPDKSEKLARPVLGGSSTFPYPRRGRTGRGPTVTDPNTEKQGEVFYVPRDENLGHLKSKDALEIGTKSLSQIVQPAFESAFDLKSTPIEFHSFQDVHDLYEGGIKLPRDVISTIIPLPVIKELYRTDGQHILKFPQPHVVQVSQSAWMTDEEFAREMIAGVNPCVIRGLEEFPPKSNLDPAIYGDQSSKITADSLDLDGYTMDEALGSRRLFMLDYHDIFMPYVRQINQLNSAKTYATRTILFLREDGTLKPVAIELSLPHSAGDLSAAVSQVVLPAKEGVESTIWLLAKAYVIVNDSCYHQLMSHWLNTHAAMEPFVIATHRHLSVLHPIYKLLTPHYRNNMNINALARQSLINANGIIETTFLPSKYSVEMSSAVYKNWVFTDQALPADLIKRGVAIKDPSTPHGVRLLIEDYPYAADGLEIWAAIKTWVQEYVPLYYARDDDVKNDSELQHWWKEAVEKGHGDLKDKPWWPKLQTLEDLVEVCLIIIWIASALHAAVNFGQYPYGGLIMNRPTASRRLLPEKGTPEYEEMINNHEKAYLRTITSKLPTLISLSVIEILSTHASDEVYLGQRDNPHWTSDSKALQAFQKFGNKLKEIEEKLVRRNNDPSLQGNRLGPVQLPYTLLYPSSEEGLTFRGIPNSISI
Procedure: In vitro anti-LOX activities were evaluated using soybean lipoxygenase isoenzyme-1 (SLOX-1), a commonly used model for mammalian LOXs.
An in vitro study was conducted following a previously reported method. The tested compounds were dissolved in DMSO (100 µM) and incubated at room temperature with 0.1 mL of sodium linoleate as the substrate and 0.2 mL of soybean lipoxygenase solution in Tris-HCl buffer (pH 9.0).

COX-1 = target: T2, COX-1 (Homo sapiens, UniProt P23219); assay: In vitro inhibition of COX-1; assay type: biochemical
T2 construct: purchased Merck and Sigma-Aldrich
T2 sequence (P23219 24-599): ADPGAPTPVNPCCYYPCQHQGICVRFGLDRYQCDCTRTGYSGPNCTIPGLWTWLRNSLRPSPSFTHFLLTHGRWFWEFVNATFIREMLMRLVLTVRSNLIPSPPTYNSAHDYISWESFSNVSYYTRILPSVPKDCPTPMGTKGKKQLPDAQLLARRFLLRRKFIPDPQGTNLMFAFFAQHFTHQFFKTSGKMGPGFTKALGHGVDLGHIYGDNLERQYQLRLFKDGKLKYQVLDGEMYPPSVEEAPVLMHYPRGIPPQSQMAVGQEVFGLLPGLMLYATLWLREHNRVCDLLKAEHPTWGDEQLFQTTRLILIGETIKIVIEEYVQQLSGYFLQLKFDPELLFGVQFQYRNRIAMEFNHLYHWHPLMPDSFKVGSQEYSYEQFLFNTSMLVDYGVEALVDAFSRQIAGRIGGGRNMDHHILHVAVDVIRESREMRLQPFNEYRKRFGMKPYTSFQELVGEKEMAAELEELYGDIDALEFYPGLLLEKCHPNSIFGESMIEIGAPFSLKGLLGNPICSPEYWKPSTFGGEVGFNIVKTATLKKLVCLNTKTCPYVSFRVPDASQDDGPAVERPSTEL
Excerpt: Enzyme inactivation can occur due to the accumulation of hydroperoxides formed from arachidonic acid or other fatty acid substrates. In order to prevent this in the in vitro experiment used for testing COX inhibition activity of the new molecules, a co-substrate like N,N,N′,N′-tetramethyl-p-phenylenediamine (TMPD) is included, as it undergoes co-oxidation by PGG2. The oxidized TMPD has a maximum absorbance at 590 nm. COX enzymes also depend on heme (Fe^3+-protoporphyrin IX) as a cofactor, which can dissociate during purification. To ensure maximum enzyme activity, heme is added to the reaction mixture during the in vitro assay for ovine COX-2 inhibition and COX-1 inhibition.
Cyclooxygenase (COX) activity was measured using arachidonic acid (AA) as the substrate and N,N,N′,N′-tetramethylphenylenediamine (TMPD) as the co-substrate following the reported method. […] The substrate oxidation was monitored at room temperature by recording the increase in absorbance at 590 nm. Absorbance due to the spontaneous oxidation of TMPD was subtracted from the initial oxidation rate observed in the presence of AA. The inhibitory activity of the test compounds at a concentration of 100 μM was evaluated after a 6-min pre-incubation with the enzyme in the presence of heme and TMPD.

bovine serum albumin = target: T3, bovine serum albumin (Bos taurus, UniProt P02769); assay: In vitro inhibition of albumin denaturation; settings: heat denaturation, 60 °C 10 min
T3 construct: bovine serum albumin solution (fraction V); purchased Merck and Sigma-Aldrich; host or cells: bovine serum (fraction V)
T3 sequence (P02769 25-607): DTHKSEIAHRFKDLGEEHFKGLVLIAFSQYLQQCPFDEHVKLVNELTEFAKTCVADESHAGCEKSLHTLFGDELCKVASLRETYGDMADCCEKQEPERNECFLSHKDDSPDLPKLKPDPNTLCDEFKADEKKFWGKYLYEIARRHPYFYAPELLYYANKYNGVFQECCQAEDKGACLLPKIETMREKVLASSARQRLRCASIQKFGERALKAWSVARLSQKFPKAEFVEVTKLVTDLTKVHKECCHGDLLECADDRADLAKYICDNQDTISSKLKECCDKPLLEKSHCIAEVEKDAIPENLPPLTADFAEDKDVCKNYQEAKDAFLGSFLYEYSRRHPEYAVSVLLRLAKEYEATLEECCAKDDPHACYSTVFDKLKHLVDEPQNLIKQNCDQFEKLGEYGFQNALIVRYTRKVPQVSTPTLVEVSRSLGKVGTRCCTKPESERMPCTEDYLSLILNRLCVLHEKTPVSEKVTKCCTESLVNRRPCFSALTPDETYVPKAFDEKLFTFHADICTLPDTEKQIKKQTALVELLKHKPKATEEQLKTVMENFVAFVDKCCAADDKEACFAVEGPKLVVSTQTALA
Procedure: The ability of a compound to inhibit the thermal denaturation of albumin is considered an indicator of anti-inflammatory activity. Heat exposure simulates conditions of cellular stress or inflammation, during which protein and tissue damage occur. Certain substances can protect proteins from denaturation upon heating by stabilizing their structure and preventing aggregation and precipitation.
Inhibition of albumin denaturation was measured following the reported method. In a test tube, 1 mL of bovine serum albumin solution (fraction V, 1% w/v in phosphate buffer, pH 7.4) and 100 μL of the test compound solution were added sequentially. The mixture was incubated at 37 °C for 15 min, followed by heating at 60 °C for 10 min. After cooling to room temperature, the absorbance was measured at 660 nm. DMSO was used as the blank, and the results were compared to acetylsalicylic acid, which served as the reference compound (Table 6).

HeLa cells = assay: MTT viability assay; assay type: cell-based; settings: Homo sapiens, 48 h
Procedure: (§1) HeLa, MCF-7, U251, U87, MDA-MB-435, and MDA-MB-231 cancer cell lines were maintained in incubators at 37 °C with 5% CO2 in DMEM medium supplemented with 10% (v/v) fetal bovine serum (FBS) and antibiotics/antimycotics. All cell lines used in this study originate from the Laboratory of Biochemistry, Department of Chemistry, Aristotle University of Thessaloniki. They are low-passage, mycoplasma-free cancer cell lines that have been extensively used over the past 25 years in numerous studies across various fields of cancer research, including drug cytotoxicity testing.
(§2) All cell lines tested were seeded in 96-well plates at a concentration of 6 × 10^3 cells per well, except HeLa, which were seeded at 3 × 10^3 cells per well. The day after, cells were exposed to increasing concentrations of the compounds for 48 h. Cell viability was determined using the 3-(4,5-dimethylthiazol-2-yl)-2,5-diphenyltetrazolium bromide (MTT) assay, a colorimetric assessment of cellular metabolic activity as described previously. Absorbance values from treated samples were normalized to those of untreated controls, which were assigned to a 100% viability value.

MCF-7 cells = assay: MTT viability assay; assay type: cell-based; settings: Homo sapiens, MCF7, 48 h
Procedure: as §1, §2

ovine COX-2 = target: T4, ovine COX-2 (Ovis aries, UniProt P79208); assay: In vitro inhibition of ovine cyclooxygenase-2
T4 sequence (P79208 17-603): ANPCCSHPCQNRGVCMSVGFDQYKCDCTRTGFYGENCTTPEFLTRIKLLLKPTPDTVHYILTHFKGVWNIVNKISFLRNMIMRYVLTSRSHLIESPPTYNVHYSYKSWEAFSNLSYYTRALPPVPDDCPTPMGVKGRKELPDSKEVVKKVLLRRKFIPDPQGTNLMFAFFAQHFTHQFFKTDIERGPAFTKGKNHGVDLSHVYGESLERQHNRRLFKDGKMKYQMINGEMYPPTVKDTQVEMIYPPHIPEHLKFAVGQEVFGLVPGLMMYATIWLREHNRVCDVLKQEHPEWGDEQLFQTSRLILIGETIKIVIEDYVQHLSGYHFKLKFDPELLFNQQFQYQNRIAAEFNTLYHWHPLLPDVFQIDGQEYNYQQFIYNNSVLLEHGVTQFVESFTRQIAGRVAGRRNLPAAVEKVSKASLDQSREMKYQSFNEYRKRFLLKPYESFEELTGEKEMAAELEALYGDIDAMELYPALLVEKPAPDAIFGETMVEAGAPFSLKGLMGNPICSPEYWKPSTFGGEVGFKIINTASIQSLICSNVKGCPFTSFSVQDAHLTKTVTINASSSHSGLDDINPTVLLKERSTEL
Procedure: In order to prevent this in the in vitro experiment used for testing COX inhibition activity of the new molecules, a co-substrate like N,N,N′,N′-tetramethyl-p-phenylenediamine (TMPD) is included, as it undergoes co-oxidation by PGG2. The oxidized TMPD has a maximum absorbance at 590 nm. […] To ensure maximum enzyme activity, heme is added to the reaction mixture during the in vitro assay for ovine COX-2 inhibition and COX-1 inhibition [63].
The in vitro COX-2 inhibitory activity was assessed using arachidonic acid (AA) as a substrate and N,N,N′,N′-tetramethyl-p-phenylenediamine (TMPD) as a co-substrate in a Tris-HCl buffer (pH 8.5), following the reported method [89]. To the test tube, 10 µL of the compound dissolved in DMSO was added to a mixture containing 730 µL of Tris-HCl buffer (pH 8.5), 50 µL of heme, 10 µL of COX-2 enzyme, and 100 µL of TMPD. The absorbance was measured at 590 nm. […] A blank determination was conducted as a negative control.

- LOX Inh. IC50 [2]: no
- inhibition at 100 µM (COX-1): 49%
- Albumin (inhibition of albumin denaturation) (bovine serum albumin): no
- EC50 (HeLa cells): 56 µM
- EC50 (MCF-7 cells): > 100 µM
- IC50 (ovine COX-2): 70 µM
Compound: O=C(OCc1c(-c2ccccc2)no[n+]1[O-])/C(=C/c1cccs1)c1ccccc1 [Compound 9i, (E)-4-Phenyl-3-(((2-phenyl-3-(thiophen-2-yl)acryloyl)oxy)methyl)-1,2,5-oxadiazole 2-oxide]
- AAPH Inh. at 100 μΜ [1]: no
